Measurements taken from patent US20180320217A1, “METHODS FOR SAMPLING AND MEASURING ORAL LAVAGE PROTEINS” (The Procter & Gamble Company, priority 2017, published 2018).
Where “and” joins values, the source holds several entries; their conditions need not be identical. Equal values may be shown once. Entries after “also recorded” stand apart in the source; their conditions may differ. Where a name gives a salt, the structure may show the parent alone.

What was measured:
[1] = test system: diaphorase; assay: Formation of formazan dyes: NADH and diaphorase, absence of malate (TABLE 7); format: biochemical, Clostridium kluyveri; conditions: NADH and diaphorase, absence of malate
[2] = test system: diaphorase; assay: Formation of formazan dyes: NADH, diaphorase and malate (TABLE 8); format: biochemical, Clostridium kluyveri; conditions: NADH, diaphorase and malate
[3] = test system: Malate dehydrogenase and diaphorase; assay: Formation of formazan dyes: Malate dehydrogenase and diaphorase, absence of malate (TABLE 9); format: biochemical, pig heart
[4] = test system: Malate dehydrogenase and diaphorase; assay: Formation of formazan dyes: Malate dehydrogenase, diaphorase and malate (TABLE 10); format: biochemical, pig heart
[5] = test system: oral lavage; assay: Formation of formazan dyes: oral lavage and diaphorase, not malate (TABLE 11); format: biochemical, human
[6] = test system: oral lavage; assay: Formation of formazan dyes: oral lavage, malate and diaphorase (TABLE 12); format: biochemical, human; conditions: oral lavage, malate and diaphorase
[7] = test system: diaphorase; assay: Formation of formazan dyes: only diaphorase, not malate (TABLE 13); format: biochemical, Clostridium kluyveri; conditions: mean of three experiments
[8] = test system: diaphorase; assay: Formation of formazan dyes: only diaphorase and malate (TABLE 14); format: biochemical, Clostridium kluyveri; conditions: mean of three experiments
[9] = Formation of formazan dyes: NADH and 1-methoxy PMS, absence of malate (TABLE 15); format: biochemical
[10] = Formation of formazan dyes: NADH, malate and 1-methoxy PMS (TABLE 16); format: biochemical; conditions: monosodium salt
[11] = test system: oral lavage; assay: Formation of formazan dyes: oral lavage and 1-Methoxy PMS, absence of malate (TABLE 19); format: biochemical, human; conditions: monosodium salt
[12] = Formation of formazan dyes: control buffer and 1-Methoxy PMS, absence of malate (TABLE 21); format: biochemical; conditions: monosodium salt
[13] = Formation of formazan dyes: control buffer, malate and 1-Methoxy PMS (TABLE 22); format: biochemical
[14] = test system: diaphorase; assay: Effect of concentrations of tetrazolium salts on formation of formazan dyes (FIGS. 4A-4G); format: biochemical; conditions: 15 mM NADH+H, 20 μg diaphorase, pH 7.5; FIGS. 4A to 4G
Protocol: On the idea that higher concentrations of tetrazolium salts in the assay buffer would likely result in more formazan dyes in the reaction, various concentrations of tetrazolium salts were added to a reaction buffer and the formation of formazan dyes were measured at 0, 30 and 60 minutes. […] The reactions were performed at room temperature. Absorbance was taken at 0, 30 and 60 minutes.

[15] = molecular target: T1, Malate dehydrogenase (Sus scrofa, UniProt P00346); assay: Formation of formazan dyes: Malate dehydrogenase and 1-Methoxy PMS, absence of malate (TABLE 17); format: biochemical, pig heart; set-up: L-malate dehydrogenase (pig heart); purchased Sigma-Aldrich 10127248001 / 10127914001
T1 sequence (P00346 25-338): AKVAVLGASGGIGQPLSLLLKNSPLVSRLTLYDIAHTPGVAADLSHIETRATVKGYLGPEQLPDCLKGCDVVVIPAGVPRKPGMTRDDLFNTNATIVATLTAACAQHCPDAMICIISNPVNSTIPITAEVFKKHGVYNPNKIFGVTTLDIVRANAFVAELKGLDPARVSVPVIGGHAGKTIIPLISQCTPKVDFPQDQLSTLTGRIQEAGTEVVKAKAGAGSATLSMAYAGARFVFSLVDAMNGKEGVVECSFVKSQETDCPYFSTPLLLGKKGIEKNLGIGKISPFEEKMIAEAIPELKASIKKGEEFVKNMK

[16] = UV absorbance analysis of formazan products, TABLE 6; conditions: in the presence of 1-methoxy PMS

## COc1cc([N+](=O)[O-])ccc1-[n+]1nc(-c2ccc(S(=O)(=O)[O-])cc2S(=O)(=O)[O-])nn1-c1ccc([N+](=O)[O-])cc1.[Na+] [WST-8, 5-(2,4-disulfophenyl)-3-(2-methoxy-4-nitrophenyl)-2-(4-nitrophenyl)-2H-tetrazolium, inner salt, monosodium salt]
[1]; 0 h
  Formation of formazan dyes, absorbance, Means 0 h: 3.54
[1]; 1 h
  Formation of formazan dyes, absorbance, Means 1 h: 3.72
[1]; 2 h
  Formation of formazan dyes, absorbance, Means 2 h: 3.77
[1]; 3 h
  Formation of formazan dyes, absorbance, Means 3 h: 3.77
[1]; 4 h
  Formation of formazan dyes, absorbance, Means 4 h: 3.63
[1]; 6 h
  Formation of formazan dyes, absorbance, Means 6 h: 3.64
[1]; 8 h
  Formation of formazan dyes, absorbance, Means 8 h: 3.66
[1]; 10 h
  Formation of formazan dyes, absorbance, Means 10 h: 3.65
[1]; 12 h
  Formation of formazan dyes, absorbance, Means 12 h: 3.67
[2]; 0 h
  Formation of formazan dyes, absorbance, Means 0 h: 3.06
[2]; 1 h
  Formation of formazan dyes, absorbance, Means 1 h: 3.36
[2]; 2 h
  Formation of formazan dyes, absorbance, Means 2 h: 3.47
[2]; 3 h
  Formation of formazan dyes, absorbance, Means 3 h: 3.53
[2]; 4 h
  Formation of formazan dyes, absorbance, Means 4 h: 3.50
[2]; 6 h
  Formation of formazan dyes, absorbance, Means 6 h: 3.54
[2]; 8 h
  Formation of formazan dyes, absorbance, Means 8 h: 3.54
[2]; 10 h
  Formation of formazan dyes, absorbance, Means 10 h: 3.51
[2]; 12 h
  Formation of formazan dyes, absorbance, Means 12 h: 3.45
[3]; Malate dehydrogenase and diaphorase, absence of malate, 0 h
  Formation of formazan dyes, absorbance, Means 0 h: 1.13
[3]; Malate dehydrogenase and diaphorase, absence of malate, 1 h
  Formation of formazan dyes, absorbance, Means 1 h: 1.84
[3]; Malate dehydrogenase and diaphorase, absence of malate, 2 h
  Formation of formazan dyes, absorbance, Means 2 h: 2.15
[3]; Malate dehydrogenase and diaphorase, absence of malate, 3 h
  Formation of formazan dyes, absorbance, Means 3 h: 2.32
[3]; Malate dehydrogenase and diaphorase, absence of malate, 4 h
  Formation of formazan dyes, absorbance, Means 4 h: 2.41
[3]; Malate dehydrogenase and diaphorase, absence of malate, 6 h
  Formation of formazan dyes, absorbance, Means 6 h: 2.62
[3]; Malate dehydrogenase and diaphorase, absence of malate, 8 h
  Formation of formazan dyes, absorbance, Means 8 h: 2.72
[3]; Malate dehydrogenase and diaphorase, absence of malate, 10 h
  Formation of formazan dyes, absorbance, Means 10 h: 2.80
[3]; Malate dehydrogenase and diaphorase, absence of malate, 12 h
  Formation of formazan dyes, absorbance, Means 12 h: 2.89
[3]; malate dehydrogenase and diaphorase (TABLE 9)
  reduction of tetrazolium dye in the absence of substrate malate: partially reduced
[4]; Malate dehydrogenase, diaphorase and malate, 0 h
  Formation of formazan dyes, absorbance, Means 0 h: 1.13
[4]; Malate dehydrogenase, diaphorase and malate, 1 h
  Formation of formazan dyes, absorbance, Means 1 h: 1.93
[4]; Malate dehydrogenase, diaphorase and malate, 2 h
  Formation of formazan dyes, absorbance, Means 2 h: 2.36
[4]; Malate dehydrogenase, diaphorase and malate, 3 h
  Formation of formazan dyes, absorbance, Means 3 h: 2.65
[4]; Malate dehydrogenase, diaphorase and malate, 4 h
  Formation of formazan dyes, absorbance, Means 4 h: 2.86
[4]; Malate dehydrogenase, diaphorase and malate, 6 h
  Formation of formazan dyes, absorbance, Means 6 h: 3.12
[4]; Malate dehydrogenase, diaphorase and malate, 8 h
  Formation of formazan dyes, absorbance, Means 8 h: 3.26
[4]; Malate dehydrogenase, diaphorase and malate, 10 h
  Formation of formazan dyes, absorbance, Means 10 h: 3.30
[4]; Malate dehydrogenase, diaphorase and malate, 12 h
  Formation of formazan dyes, absorbance, Means 12 h: 3.28
[4]; malate dehydrogenase, diaphorase and malate (TABLE 10), monosodium salt
  conversion to reduced formazan dyes: converted to reduced formazan dyes in a time-dependent fashion; also recorded: able to catalyze the reduction
[5]; oral lavage and diaphorase, not malate, 0 h
  Formation of formazan dyes, absorbance, Means 0 h: 0.59
[5]; oral lavage and diaphorase, not malate, 1 h
  Formation of formazan dyes, absorbance, Means 1 h: 0.83
[5]; oral lavage and diaphorase, not malate, 2 h
  Formation of formazan dyes, absorbance, Means 2 h: 0.87
[5]; oral lavage and diaphorase, not malate, 3 h
  Formation of formazan dyes, absorbance, Means 3 h: 0.84
[5]; oral lavage and diaphorase, not malate, 4 h
  Formation of formazan dyes, absorbance, Means 4 h: 0.82
[5]; oral lavage and diaphorase, not malate, 6 h
  Formation of formazan dyes, absorbance, Means 6 h: 0.88
[5]; oral lavage and diaphorase, not malate, 8 h
  Formation of formazan dyes, absorbance, Means 8 h: 1.00
[5]; oral lavage and diaphorase, not malate, 10 h
  Formation of formazan dyes, absorbance, Means 10 h: 1.00
[5]; oral lavage and diaphorase, not malate, 12 h
  Formation of formazan dyes, absorbance, Means 12 h: 1.01
[5]; pooled oral lavage of high bleeder group, diaphorase, no added malate (TABLE 11)
  reduction to formazan dyes by pooled oral lavage: partially reduced to formazan dyes
[6]; 0 h
  Formation of formazan dyes, absorbance, Means 0 h: 0.51
[6]; 1 h
  Formation of formazan dyes, absorbance, Means 1 h: 0.70
[6]; 2 h
  Formation of formazan dyes, absorbance, Means 2 h: 0.80
[6]; 3 h
  Formation of formazan dyes, absorbance, Means 3 h: 0.84
[6]; 4 h
  Formation of formazan dyes, absorbance, Means 4 h: 0.85
[6]; 6 h
  Formation of formazan dyes, absorbance, Means 6 h: 0.91
[6]; 8 h
  Formation of formazan dyes, absorbance, Means 8 h: 1.05
[6]; 10 h
  Formation of formazan dyes, absorbance, Means 10 h: 1.09
[6]; 12 h
  Formation of formazan dyes, absorbance, Means 12 h: 1.33
[7]; 0 h
  Absorbance, formation of formazan dyes (Means): 0.22
[7]; 1 h
  Absorbance, formation of formazan dyes (Means): 0.38
[7]; 2 h
  Absorbance, formation of formazan dyes (Means): 0.46
[7]; 3 h
  Absorbance, formation of formazan dyes (Means): 0.48
[7]; 4 h
  Absorbance, formation of formazan dyes (Means): 0.43
[7]; 6 h
  Absorbance, formation of formazan dyes (Means): 0.46
[7]; 8 h
  Absorbance, formation of formazan dyes (Means): 0.44
[7]; 10 h
  Absorbance, formation of formazan dyes (Means): 0.44
[7]; 12 h
  Absorbance, formation of formazan dyes (Means): 0.47
[8]; 0 h
  Absorbance, formation of formazan dyes (Means): 0.10
[8]; 1 h
  Absorbance, formation of formazan dyes (Means): 0.14
[8]; 2 h
  Absorbance, formation of formazan dyes (Means): 0.16
[8]; 3 h
  Absorbance, formation of formazan dyes (Means): 0.19
[8]; 4 h
  Absorbance, formation of formazan dyes (Means): 0.21
[8]; 6 h
  Absorbance, formation of formazan dyes (Means): 0.26
[8]; 8 h
  Absorbance, formation of formazan dyes (Means): 0.31
[8]; 10 h
  Absorbance, formation of formazan dyes (Means): 0.35
[8]; 12 h
  Absorbance, formation of formazan dyes (Means): 0.38
[9]
  formation of formazan dyes / precipitates with 1-methoxy PMS and NADH: converted to formazan dyes quickly
[9]; monosodium salt
  Absorbance, formation of formazan dyes (Means): 3.65 and 3.66 and 3.67
[10]
  Absorbance, formation of formazan dyes (Means): 3.37 and 3.42 and 3.41
[11]
  Absorbance, formation of formazan dyes (Means): 1.03 and 1.38 and 1.68 and 1.86
[12]
  Absorbance, formation of formazan dyes (Means): 0.44 and 0.55 and 0.49 and 0.62
[13]
  Means absorbance 0 h: 0.19
  Means absorbance 1 h: 0.20
  Means absorbance 2 h: 0.23
  Means absorbance 3 h: 0.26
[14]
  concentration of tetrazolium salt at which absorbance reached peaks: 2 mM
[15]
  reduction by malate dehydrogenase alone: did not catalyze the reduction
[15]; monosodium salt
  Absorbance, formation of formazan dyes (Means): 0.35 and 0.47

## O=[N+]([O-])c1ccc(-n2nc(-c3ccccc3)n[n+]2-c2ccc(/N=N/c3ccc(S(=O)(=O)O)cc3)cc2S(=O)(=O)[O-])cc1 [WST-9, 2-(4-Nitrophenyl)-5-phenyl-3-[4-(4-sulfophenylazo)-2-sulfophenyl]-2H-tetrazolium, monosodium salt]
[16]
  solubility of formazan products: form precipitates
